The values that follow come from patent US7435790B2, “Dihydroxypropyl cysteine peptide and agent containing this peptide” (Helmholtz-Zentrum fuer Infektionsforschung GmbH, priority 1996, dated 2008).

The test system of experiment [1] is interferon-treated murine peritoneal macrophages. Put plainly: Nitrite/nitrate (nitrogen monoxide) release on stimulation of interferon-treated murine peritoneal macrophages. The experiment is classed as cell-based. The settings on record: mouse system. The procedure: The lipopeptide is prepared from Mycoplasma fermentans (for example PG18). The isolation of the lipopeptide from mycoplasma is carried out by the following known separation procedure (Mühlradt et al. in Biochemistry, 35 (1996) 7781-7786). • (i) Delipidation of the mycoplasma using chloroform/methanol. • (ii) Extraction of the delipidated mycoplasma using hot 25 mM octyl glucoside. • (iii) Dialysis of the detergent extract. • (iv) Concentration of the extract by lyophilisation. • (v) Reversed-phase chromatography on a C8 column using a water/2-propanol gradient. Detection of the biological activity is effected by measuring nitrite and nitrate as the secondary products of nitrogen monoxide, which is liberated on stimulation of interferon-treated murine peritoneal macrophages.
Immun., 59 (1991) 3962-3968 and Feng & Lo in Infect. Immun., 62 (1994) 3916-3921. Its half-maximum effective concentration (Max/2) is 20 pg/ml or 10^−11 M in the mouse system. That effective concentration is lower by a factor of from 10^2 to 10^3 than the corresponding known concentrations of similar natural or synthetic lipopeptides.

The next experiment relates to macrophages of mice. The settings on record: cited from earlier work.
The subject of the next experiment is macrophages of humans. Particulars: cited from earlier work.

For the substance “Dhc-GNN DES NIS FKE K: S-(2,3-dihydroxypropyl)-cysteine peptide from Mycoplasma fermentans with two ester-bonded long-chain fatty acids (C16:0 and C18:0/C18:1)”, the “half-maximum effective concentration (Max/2)” value in experiment [1] stood at 20 pg/mL. Moreover, the EC50 in experiment [1] (read-out: half-maximum effective concentration (Max/2)) amounted to 0.01 nM. Also, the “release of cytokines and prostaglandins from macrophages” value is “stimulating macrophages of mice and humans to release cytokines and prostaglandins” in the experiment with macrophages of mice; “stimulating macrophages of mice and humans to release cytokines and prostaglandins” in the experiment with macrophages of humans.
